From ChEMBL document CHEMBL1201862, “PubChem BioAssay data set” (2004)
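Five concentrations, 48 hours, 96-well plates. The concentration for 50% growth inhibition is given as GI50.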 Activity calls are given as the source filed them. No stated cut-off is given here; in the data, active = GI50 up to about 1.1 µM and inactive = higher.

Experiments:
Assay in all cases: NCI anticancer screen, dose series, 48 h
[1] = test system: HCT-15
[2] = test system: SN12C
[3] = test system: RPMI-8226
[4] = test system: LOX IMVI
[5] = test system: CCRF-CEM
[6] = test system: DLD-1
[7] = test system: SK-MEL-2
[8] = test system: UACC-62
[9] = test system: RXF 631
[10] = test system: XF498
[11] = test system: HT-29
[12] = test system: SF-295
[13] = test system: UO-31
[14] = test system: ACHN
[15] = test system: K562
[16] = test system: M19-MEL
[17] = test system: SK-MEL-28
[18] = test system: SNB-19
[19] = test system: NCI-H522
[20] = test system: HCC 2998
[21] = test system: DMS-114
[22] = test system: U-251
[23] = test system: 786-0
[24] = test system: LXFL 529
[25] = test system: HL-60
[26] = test system: SK-OV-3
[27] = test system: KM-20L2
[28] = test system: NCI-H23
[29] = test system: SF-268
[30] = test system: IGROV-1
[31] = test system: COLO 205
[32] = test system: CAKI-1
[33] = test system: Malme-3M
[34] = test system: OVCAR-8
[35] = test system: OVCAR-3
[36] = test system: NCI-H460
[37] = test system: OVCAR-4
[38] = test system: A498
[39] = test system: HOP-62
[40] = test system: DMS-273
[41] = test system: TK-10
[42] = test system: SW-620
[43] = test system: M14
[44] = test system: UACC-257
[45] = test system: SK-MEL-5
[46] = test system: MOLT-4
[47] = test system: A549
[48] = test system: SF-539
[49] = test system: SNB-78
[50] = test system: EKVX
[51] = test system: HCT-116
[52] = test system: KM12
[53] = test system: OVCAR-5
[54] = test system: HOP-92
[55] = test system: NCI-H226
[56] = test system: HOP-18
[57] = test system: RXF 393
[58] = test system: SNB-75
[59] = test system: SR

## COc1ccc(O)c2c1C(=O)CCCC2=O
[1]
  GI50: > 100 µM
[2]
  GI50: > 100 µM (inactive)
[3]
  GI50: > 100 µM (inactive)
[4]
  GI50: > 100 µM (inactive)
[5]
  GI50: > 100 µM (inactive)
[6]
  GI50: > 100 µM (inactive)
[7]
  GI50: > 100 µM (inactive)
[8]
  GI50: > 100 µM (inactive)
[9]
  GI50: > 100 µM (inactive)
[10]
  GI50: > 100 µM (inactive)
[11]
  GI50: > 100 µM (inactive)
[12]
  GI50: > 100 µM (inactive)
[13]
  GI50: > 100 µM (inactive)
[14]
  GI50: > 100 µM (inactive)
[15]
  GI50: > 100 µM (inactive)
[16]
  GI50: > 100 µM (inactive)
[17]
  GI50: > 100 µM (inactive)
[18]
  GI50: > 100 µM (inactive)
[19]
  GI50: > 100 µM (inactive)
[20]
  GI50: > 100 µM (inactive)
[21]
  GI50: > 100 µM (inactive)
[22]
  GI50: > 100 µM (inactive)
[23]
  GI50: > 100 µM (inactive)
[24]
  GI50: > 100 µM (inactive)
[25]
  GI50: > 100 µM (inactive)
[26]
  GI50: > 100 µM (inactive)
[27]
  GI50: > 100 µM (inactive)
[28]
  GI50: > 100 µM (inactive)
[29]
  GI50: > 100 µM (inactive)
[30]
  GI50: > 100 µM (inactive)
[31]
  GI50: > 100 µM (inactive)
[32]
  GI50: > 100 µM (inactive)
[33]
  GI50: > 100 µM (inactive)
[34]
  GI50: > 100 µM (inactive)
[35]
  GI50: > 100 µM (inactive)
[36]
  GI50: > 100 µM (inactive)
[37]
  GI50: > 100 µM (inactive)
[38]
  GI50: > 100 µM (inactive)
[39]
  GI50: > 100 µM (inactive)
[40]
  GI50: > 100 µM (inactive)
[41]
  GI50: > 100 µM (inactive)
[42]
  GI50: > 100 µM (inactive)
[43]
  GI50: > 100 µM (inactive)
[44]
  GI50: > 100 µM (inactive)
[45]
  GI50: > 100 µM (inactive)
[46]
  GI50: > 100 µM (inactive)
[47]
  GI50: > 100 µM (inactive)
[48]
  GI50: > 100 µM (inactive)
[49]
  GI50: > 100 µM (inactive)
[50]
  GI50: 40.1 µM (inactive)
[51]
  GI50: > 100 µM (inactive)
[52]
  GI50: > 100 µM (inactive)
[53]
  GI50: > 100 µM (inactive)

## COc1cc(/C=C/C(=O)c2sc(NNC(C)=O)nc2C)ccc1O
[1]
  GI50: > 100 µM
[2]
  GI50: > 100 µM (inactive)
[3]
  GI50: > 100 µM (inactive)
[54]
  GI50: > 100 µM (inactive)
[4]
  GI50: > 100 µM (inactive)
[5]
  GI50: > 100 µM (inactive)
[6]
  GI50: > 100 µM (inactive)
[7]
  GI50: > 100 µM (inactive)
[8]
  GI50: > 100 µM (inactive)
[9]
  GI50: > 100 µM (inactive)
[11]
  GI50: > 100 µM (inactive)
[55]
  GI50: > 100 µM (inactive)
[12]
  GI50: > 100 µM (inactive)
[13]
  GI50: > 100 µM (inactive)
[14]
  GI50: > 100 µM (inactive)
[15]
  GI50: > 100 µM (inactive)
[17]
  GI50: > 100 µM (inactive)
[19]
  GI50: > 100 µM (inactive)
[20]
  GI50: > 100 µM (inactive)
[21]
  GI50: > 100 µM (inactive)
[22]
  GI50: > 100 µM (inactive)
[23]
  GI50: > 100 µM (inactive)
[25]
  GI50: > 100 µM (inactive)
[26]
  GI50: > 100 µM (inactive)
[27]
  GI50: > 100 µM (inactive)
[28]
  GI50: > 100 µM (inactive)
[29]
  GI50: > 100 µM (inactive)
[30]
  GI50: > 100 µM (inactive)
[31]
  GI50: > 100 µM (inactive)
[32]
  GI50: > 100 µM (inactive)
[56]
  GI50: > 100 µM (inactive)
[33]
  GI50: > 100 µM (inactive)
[34]
  GI50: > 100 µM (inactive)
[35]
  GI50: > 100 µM (inactive)
[36]
  GI50: > 100 µM (inactive)
[57]
  GI50: > 100 µM (inactive)
[58]
  GI50: > 100 µM (inactive)
[38]
  GI50: 84.3 µM (inactive)
[39]
  GI50: > 100 µM (inactive)
[40]
  GI50: > 100 µM (inactive)
[41]
  GI50: > 100 µM (inactive)
[42]
  GI50: > 100 µM (inactive)
[44]
  GI50: > 100 µM (inactive)
[45]
  GI50: > 100 µM (inactive)
[46]
  GI50: > 100 µM (inactive)
[47]
  GI50: > 100 µM (inactive)
[48]
  GI50: > 100 µM (inactive)
[49]
  GI50: > 100 µM (inactive)
[50]
  GI50: > 100 µM (inactive)
[52]
  GI50: > 100 µM (inactive)
[53]
  GI50: > 100 µM (inactive)

## O=C1C2=C(C(c3ccccc3)=C1c1ccccc1)c1ccccc1C1(c3ccccc3)C2=C(O)C(c2ccccc2)=C1c1ccccc1 (centres undefined)
[1]
  GI50: > 100 µM
[2]
  GI50: > 100 µM (inactive)
[3]
  GI50: > 100 µM (inactive)
[54]
  GI50: > 100 µM (inactive)
[4]
  GI50: > 100 µM (inactive)
[6]
  GI50: > 100 µM (inactive)
[7]
  GI50: > 100 µM (inactive)
[8]
  GI50: > 100 µM (inactive)
[9]
  GI50: > 100 µM (inactive)
[11]
  GI50: > 100 µM (inactive)
[55]
  GI50: > 100 µM (inactive)
[12]
  GI50: > 100 µM (inactive)
[13]
  GI50: > 100 µM (inactive)
[14]
  GI50: > 100 µM (inactive)
[16]
  GI50: > 100 µM (inactive)
[17]
  GI50: > 100 µM (inactive)
[19]
  GI50: > 100 µM (inactive)
[20]
  GI50: > 100 µM (inactive)
[21]
  GI50: > 100 µM (inactive)
[59]
  GI50: > 100 µM (inactive)
[22]
  GI50: > 100 µM (inactive)
[23]
  GI50: > 100 µM (inactive)
[24]
  GI50: > 100 µM (inactive)
[25]
  GI50: > 100 µM (inactive)
[26]
  GI50: > 100 µM (inactive)
[27]
  GI50: > 100 µM (inactive)
[28]
  GI50: > 100 µM (inactive)
[29]
  GI50: > 100 µM (inactive)
[30]
  GI50: > 100 µM (inactive)
[31]
  GI50: > 100 µM (inactive)
[32]
  GI50: > 100 µM (inactive)
[56]
  GI50: > 100 µM (inactive)
[33]
  GI50: > 100 µM (inactive)
[34]
  GI50: > 100 µM (inactive)
[35]
  GI50: > 100 µM (inactive)
[36]
  GI50: > 100 µM (inactive)
[57]
  GI50: > 100 µM (inactive)
[37]
  GI50: > 100 µM (inactive)
[58]
  GI50: > 100 µM (inactive)
[38]
  GI50: > 100 µM (inactive)
[39]
  GI50: > 100 µM (inactive)
[40]
  GI50: > 100 µM (inactive)
[41]
  GI50: > 100 µM (inactive)
[42]
  GI50: > 100 µM (inactive)
[43]
  GI50: > 100 µM (inactive)
[44]
  GI50: > 100 µM (inactive)
[45]
  GI50: > 100 µM (inactive)
[46]
  GI50: > 100 µM (inactive)
[47]
  GI50: > 100 µM (inactive)
[48]
  GI50: > 100 µM (inactive)
[49]
  GI50: > 100 µM (inactive)
[50]
  GI50: > 100 µM (inactive)
[51]
  GI50: > 100 µM (inactive)
[52]
  GI50: > 100 µM (inactive)
[53]
  GI50: > 100 µM (inactive)
